Consider 29 compounds from patent US10597390B2, “Indoles for use in influenza virus infection” (Janssen Sciences Ireland UC, priority 2014, dated 2020).

For series [1], the system named is influenza virus A/Taiwan/1/86 (H1N1). The experiment in a line: organism not typed. It counts as cell-based. As to conditions: MDCK, 72 h, CPE in MDCK cells, three days post-virus exposure, ATPlite. (In general: In ATP-based viability assays light output follows the ATP content of the culture.)
A further series in a line: in vitro. The note with it: dog, TOX MDCK CC50.

Compound `O=C(N[C@@H]1CCC[C@H](Nc2nc(-c3c[nH]c4c(F)cc(F)cc34)ncc2F)C1)c1ncccn1` [Compound 108] displayed a melting point of over 300 °C. This compound registered an IC50 in series [1] of 6 nM. The same compound returned a CC50 at 3 days in “in vitro” of over 24000 nM.

Compound `O=C(N[C@@H]1CCC[C@H](Nc2nc(-c3c[nH]c4c(F)cc(F)cc34)ncc2F)C1)c1nccs1` [Compound 109] had a melting point of 277 °C. In series [1], this compound returned an IC50 of 2 nM. The same compound returned a CC50 at 3 days in “in vitro” of 6100 nM.

As for `Cc1ccnc(C(=O)N[C@@H]2CCC[C@H](Nc3nc(-c4c[nH]c5c(F)cc(F)cc45)ncc3F)C2)c1` [Compound 110], the melting point came out at 255 °C. 3 nM corresponded to half-maximal inhibition in series [1] (IC50). For the same compound, the CC50 at 3 days in the series “in vitro” was 9600 nM.

`O=C(N[C@@H]1CCC[C@H](Nc2nc(-c3c[nH]c4c(F)cc(F)cc34)ncc2F)C1)c1c[nH]nn1` [Compound 111]: the melting point was 265 °C. Moreover, the IC50 in series [1] is 0.6 nM. The CC50 at 3 days in the series “in vitro” came out at 9000 nM.

On to `Cc1cc(C(=O)N[C@@H]2CCC[C@H](Nc3nc(-c4c[nH]c5c(F)cc(F)cc45)ncc3F)C2)n[nH]1` [Compound 112], for which the melting point was 283 °C. This compound also registered an IC50 in series [1] of 3 nM. In addition, the CC50 at 3 days in “in vitro” is 18000 nM.

The compound `Cc1ncn(C)c1C(=O)N[C@@H]1CCC[C@H](Nc2nc(-c3c[nH]c4c(F)cc(F)cc34)ncc2F)C1` [Compound 113] had a melting point of over 300 °C. Besides, in series [1], the IC50 amounted to 39 nM. The compound further showed a CC50 at 3 days in the series “in vitro” of over 25000 nM.

On to `O=C(N[C@@H]1CCC[C@H](Nc2nc(-c3c[nH]c4c(F)cc(F)cc34)ncc2F)C1)c1ncn[nH]1` [Compound 114], for which the melting point turned out to be 289.8 °C. In addition, in series [1], the IC50 came to 430 nM. This compound came in with a 50% cytotoxic concentration (CC50) at 3 days in the series “in vitro” of over 25000 nM.

The compound `CCn1nccc1C(=O)N[C@@H]1CCC[C@H](Nc2nc(-c3c[nH]c4c(F)cc(F)cc34)ncc2F)C1` [Compound 115] registered a melting point of 266.8 °C. In series [1], the IC50 was 380 nM. The same compound registered a CC50 at 3 days in “in vitro” of over 25000 nM.

`Cc1cc(C(=O)N[C@@H]2CCC[C@H](Nc3nc(-c4c[nH]c5c(F)cc(F)cc45)ncc3F)C2)n(C)n1` [Compound 116] had a melting point of 279 °C. The compound further displayed an IC50 in series [1] of 12 nM. Besides, it took 5800 nM to reach half-maximal cytotoxicity in “in vitro” (CC50 at 3 days).

For `Cc1c(C(=O)N[C@@H]2CCC[C@H](Nc3nc(-c4c[nH]c5c(F)cc(F)cc45)ncc3F)C2)nnn1C` [Compound 117], the melting point was 202 °C. Also, the IC50 in series [1] amounted to 11 nM. Moreover, the CC50 at 3 days in “in vitro” came to 8700 nM.

As for `Cc1nc(C(=O)N[C@@H]2CCC[C@H](Nc3nc(-c4c[nH]c5c(F)cc(F)cc45)ncc3F)C2)no1` [Compound 118], the melting point is 233 °C. Besides, the IC50 in series [1] is 43 nM. The compound also registered a CC50 at 3 days in the series “in vitro” of over 25000 nM.

The compound `Cn1nncc1C(=O)N[C@@H]1CCC[C@H](Nc2nc(-c3c[nH]c4c(F)cc(F)cc34)ncc2F)C1` [Compound 119] had a melting point of 285 °C. In series [1], the IC50 turned out to be 5 nM. The compound further displayed a CC50 at 3 days in “in vitro” of over 50000 nM.

In turn, `Cn1cc(C(=O)N[C@@H]2CCC[C@H](Nc3nc(-c4c[nH]c5c(F)cc(F)cc45)ncc3F)C2)cn1` [Compound 120] returned a melting point of over 300 °C. In addition, the IC50 in series [1] worked out at 3 nM. Also, in the series “in vitro”, the CC50 at 3 days was over 25000 nM.

Regarding `CN(C)c1ccnc(C(=O)N[C@@H]2CCC[C@H](Nc3nc(-c4c[nH]c5c(F)cc(F)cc45)ncc3F)C2)c1` [Compound 121], the melting point was determined as 282.8 °C. Further, the IC50 in series [1] is 6 nM. The compound also gave a CC50 at 3 days in the series “in vitro” of 15700 nM.

The compound `Cn1nccc1C(=O)N[C@@H]1CCC[C@H](Nc2nc(-c3c[nH]c4c(F)cc(F)cc34)ncc2F)C1` [Compound 122] returned a melting point of over 300 °C. The same compound came in with an IC50 in series [1] of 2 nM. Besides, in “in vitro”, the CC50 at 3 days is over 25000 nM.

Compound `Nc1nccc(C(=O)N[C@@H]2CCC[C@H](Nc3nc(-c4c[nH]c5c(F)cc(F)cc45)ncc3F)C2)n1` [Compound 123] displayed a melting point of 235 °C. In series [1], this compound showed a concentration for half-maximal inhibition (IC50) of 11 nM. In the series “in vitro”, the CC50 at 3 days is over 25000 nM.

In turn, `Nc1cc(C(=O)N[C@@H]2CCC[C@H](Nc3nc(-c4c[nH]c5c(F)cc(F)cc45)ncc3F)C2)ncn1` [Compound 124] gave a melting point of 228 °C. In series [1], this compound returned an IC50 of 7 nM. This compound registered a CC50 at 3 days in the series “in vitro” of 11400 nM.

In turn, `O=C(N[C@@H]1CCC[C@H](Nc2nc(-c3c[nH]c4c(F)cc(F)cc34)ncc2F)C1)c1cc[nH]n1` [Compound 126] showed a melting point of over 300 °C. In series [1], the IC50 came out at 2 nM. In “in vitro”, this compound returned a CC50 at 3 days of 10000 nM.

As for `O=C(N[C@@H]1CCC[C@H](Nc2nc(-c3c[nH]c4c(F)cc(F)cc34)ncc2F)C1)c1ncc[nH]1` [Compound 127], the melting point is over 300 °C. Further, in series [1], the IC50 turned out to be 1 nM. Also, the CC50 at 3 days in “in vitro” is over 100000 nM.

As for `Cn1cc(Br)nc1C(=O)N[C@@H]1CCC[C@H](Nc2nc(-c3c[nH]c4c(F)cc(F)cc34)ncc2F)C1` [Compound 128], the melting point came to 176 °C. In series [1], this compound returned an IC50 of 10 nM. This compound returned a CC50 at 3 days in the series “in vitro” of 5900 nM.

On to `Cn1cc(C(=O)N[C@@H]2CCC[C@H](Nc3nc(-c4c[nH]c5c(F)cc(F)cc45)ncc3F)C2)nn1` [Compound 130], for which the melting point was over 300 °C. In addition, the IC50 in series [1] is 32 nM. The compound also came in with a CC50 at 3 days in the series “in vitro” of 3200 nM.

`Nc1cc(C(=O)N[C@@H]2CCC[C@H](Nc3nc(-c4c[nH]c5c(F)cc(F)cc45)ncc3F)C2)n[nH]1` [Compound 131]: the melting point worked out at 245.7 °C. In series [1], this compound had an IC50 of 4 nM. It took 19400 nM to reach half-maximal cytotoxicity in the series “in vitro” (CC50 at 3 days).

In turn, `Cc1ocnc1C(=O)N[C@@H]1CCC[C@H](Nc2nc(-c3c[nH]c4c(F)cc(F)cc34)ncc2F)C1` [Compound 132] returned a melting point of 266.7 °C. Moreover, in series [1], the IC50 turned out to be 2 nM. Also, the CC50 at 3 days in “in vitro” amounted to 11400 nM.

`Cn1cnc(C(=O)N[C@@H]2CCC[C@H](Nc3nc(-c4c[nH]c5c(F)cc(F)cc45)ncc3F)C2)n1` [Compound 134] displayed a melting point of 183.2 °C. This compound also displayed an IC50 in series [1] of 14 nM. The CC50 at 3 days in the series “in vitro” turned out to be 10300 nM.

Turning to `Cc1c[nH]c(C(=O)N[C@@H]2CCC[C@H](Nc3nc(-c4c[nH]c5c(F)cc(F)cc45)ncc3F)C2)n1` [Compound 135], the melting point was determined as 281.9 °C. Inhibition in series [1] was half-maximal at 2 nM (IC50). In the series “in vitro”, the CC50 at 3 days was determined as 8400 nM.

`Cc1cn(C)nc1C(=O)N[C@@H]1CCC[C@H](Nc2nc(-c3c[nH]c4c(F)cc(F)cc34)ncc2F)C1` [Compound 136] had a melting point of 265.1 °C. Half-maximal inhibition in series [1] (IC50) was put at 3 nM. The same compound came in with a CC50 at 3 days in the series “in vitro” of 7600 nM.

`O=C(N[C@@H]1CCC[C@H](Nc2nc(-c3c[nH]c4c(F)cc(F)cc34)ncc2F)C1)c1cncnc1` [Compound 138] showed a melting point of over 300 °C. In series [1], the IC50 amounted to 39 nM. For the same compound, the CC50 at 3 days in “in vitro” was over 25000 nM.

As for `O=C(N[C@@H]1CCC[C@H](Nc2nc(-c3c[nH]c4c(F)cc(F)cc34)ncc2F)C1)C1CCCN1` (stereo partly drawn) [Compound 139], the melting point was 208.1 °C. Moreover, in series [1], the IC50 came out at 2000 nM. For the same compound, the CC50 at 3 days in “in vitro” is 11500 nM.

In the case of `Cn1ncnc1C(=O)N[C@@H]1CCC[C@H](Nc2nc(-c3c[nH]c4c(F)cc(F)cc34)ncc2F)C1` [Compound 140], the melting point turned out to be 172.7 °C. The compound also showed an IC50 in series [1] of 7 nM. The compound further yielded a CC50 at 3 days in “in vitro” of over 25000 nM.

Broadly, the IC50 is the concentration that gives 50% inhibition. By melting point is commonly meant the temperature, or range, at which the solid turns liquid. The term CC50 denotes the concentration at which the toxic effect on the cells reaches its halfway point. Low values mean harm at low concentration, high ones better tolerance by the cells.
